Where “and” joins values, the source holds several entries; their conditions need not be identical. Equal entries are not always repeated.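 Grown in 96-well plates, cells were treated for 48 hours with each compound at five concentrations. Insufficient inhibition: endpoint recorded as highest concentration tested. Abbreviation: GI50, concentration required for 50% inhibition of growth. Definition used: TGI = concentration required for complete inhibition of growth.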 Where only a bound is given, the exact number is not on record here.

Holding throughout (experiment): NCI-60 cell line screen, 48 h
Assay [1] has as its system UACC-62 melanoma.
The test system of assay [2] is U251 CNS.
For assay [3], the system named is OVCAR-5 ovarian.
Assay [4] relates to T-47D breast.
Assay [5] relates to M14 melanoma.
Assay [6] has as its system SK-MEL-2 melanoma.
In assay [7] the test system is ACHN renal.
The subject of assay [8] is 786-0 renal.
Assay [9] concerns RPMI-8226 leukemia.
The subject of assay [10] is SF-268 CNS.
Assay [11] concerns MALME-3M melanoma.
Assay [12] concerns HS 578T breast.

Turning to `Cc1cc(NCCCCCCCCCC[n+]2c(C)cc(N)c3ccccc32)c2ccccc2n1`, the TGI in assay [1] was 4.17 µM; in [2], 4.3 µM; in assay [3], 24.7 µM; in [4], 12.3 µM; in [5], 12 µM; in assay [6], 7.29 µM. Also, the TGI is 10.1 µM in assay [7]; 15.1 µM in assay [8]; 2.28 µM in assay [9]; > 39 µM in assay [10]; 18.5 µM in [11].

Turning to `[N-]=[NH+]CC(=O)OC(COCc1ccccc1)COCc1ccccc1`, the TGI in [1], in [2], in assay [3], in assay [6], in [7] and in [8] was > 100 µM each time. The TGI in [9], in [10] and in [11] was > 100 µM each time.

`COc1cc(NCc2ccc3nc(OC)c(OC)nc3c2)cc(OC)c1OC`: the TGI in [1], in assay [2], in assay [3], in assay [4], in assay [5] and in assay [6] was > 100 µM throughout. Moreover, the TGI in assay [7], in assay [8], in [10] and in assay [11] was > 100 µM in each case.

As for `CC1(C)CCC[C@@]2(C)C1CC[C@H]1CC(O)C3(C)CCC12C3` (stereo partly specified), the TGI in assay [1] was 29.2 µM; in assay [2], 32.3 µM; in assay [3], 32.2 µM; in assay [5], 31 µM; in [7], 31.8 µM; in assay [8] it was 31.5 µM. The TGI in assay [9] was 72.6 µM; in assay [10], 40.9 µM; in [11], 30.7 µM.

Regarding `NC(=S)N/N=C(\C(=O)Nc1cccc([N+](=O)[O-])c1)c1nc2ccc([N+](=O)[O-])cc2[nH]c1=O`, the TGI in assay [1], in assay [2], in assay [3], in assay [5], in assay [6] and in [7] was > 100 µM throughout. For the same molecule, the TGI in [8], in assay [9], in assay [10] and in assay [11] was > 100 µM in each case.

Regarding `CCCn1c(SCC)c2cc3cc4ccccc4cc3cc2c1-c1nc(F)nc(F)n1`, the TGI in [3], in assay [5], in assay [6], in assay [7], in assay [8] and in assay [9] was > 100 µM each time. For the same molecule, the TGI in assay [10] and in assay [11] was > 100 µM throughout.

For the molecule `O=C(c1ccco1)N(C(=S)N1CCN(c2ccccn2)CC1)C1CCCCC1`, the TGI in [1], in assay [2], in assay [3], in assay [5], in assay [6] and in assay [7] was > 100 µM in each case. For the same molecule, the TGI in assay [8], in assay [9], in assay [10] and in assay [11] was > 100 µM each time.

For the molecule `CC(C)C1CCC/C=C/C=C/C=C/C=C/C(OC2OC(C)C(O)C(N)C2O)CC2OC(O)(CC(O)CC(O)C(O)CCC(=O)O1)CC(O)C2C(=O)O` (stereo unspecified), the TGI in [1], in assay [2], in assay [5], in [7], in [8] and in assay [9] was > 52.5 µM each time. In addition, the TGI in [10] and in [11] was > 52.5 µM throughout.

Regarding `CSC1=N/C(=C\c2ccco2)C(=O)N1CN1CCCCC1`, the TGI in [1], in assay [2], in assay [3], in assay [12], in [5] and in [6] was > 100 µM each time. In addition, the TGI in [7], in assay [8], in [9], in assay [10] and in [11] was > 100 µM in each case.

Consider `Cn1c(Nc2ccccc2)c(C=Nc2ccccc2)c(=O)n(C)c1=O`, for which the TGI in assay [1], in assay [2], in assay [3], in assay [5], in [6] and in assay [8] was > 100 µM each time. Besides, the TGI in assay [9] and in assay [10] was > 100 µM each time.

On to `O=C(C1C(c2ccccc2)N1C(c1ccccc1)c1ccccc1)C1C(c2ccccc2)N1C(c1ccccc1)c1ccccc1` (stereo unspecified), for which the TGI in [2] was 71.8 µM; in assay [3], 81.2 µM; in assay [12], 46.3 µM; in assay [4], > 100 µM; in assay [5], > 100 µM; in [8], 48.2 µM. Moreover, the TGI was 10.9 µM in assay [9] and 67.5 µM in assay [10].

Regarding `O=C(c1cccs1)N(C(=S)N1CCN(c2ccccn2)CC1)C1CCCCC1`, the TGI in [1], in assay [2], in assay [3], in assay [5], in assay [6] and in assay [7] was > 100 µM in each case. In addition, the TGI in [8], in [9], in assay [10] and in assay [11] was > 100 µM each time.

As to `CN(C(=O)Cc1ccc(Cl)c(Cl)c1)[C@@H]1CCCC[C@H]1[N+]1(C)CC=CC1`, the TGI in assay [1], in assay [2], in [3], in assay [4], in assay [5] and in assay [6] was > 100 µM in each case. For the same molecule, the TGI in assay [7], in [8], in assay [9], in assay [10] and in assay [11] was > 100 µM throughout.

For the molecule `CSc1nc(NC(=O)O)c(N(C(C)=O)C(=O)O)c(=O)n1C`, the TGI in assay [1], in assay [2], in assay [3], in assay [5], in assay [6] and in assay [7] was > 100 µM throughout. The TGI in assay [8], in assay [9], in assay [10] and in assay [11] was > 100 µM each time.

For the molecule `O=C(Nc1ccc(F)cc1)C(=O)C(C1OC(=O)c2ccccc21)[N+](=O)[O-]` (stereo unspecified), the TGI in assay [1], in assay [2], in assay [3], in assay [5], in [6] and in [7] was > 100 µM each time. The TGI in assay [8], in [9], in assay [10] and in [11] was > 100 µM throughout.

Consider `O=C1c2ccccc2C2=Nc3ccncc3CN12`, for which the TGI in assay [1], in assay [2], in assay [3], in assay [5], in [6] and in assay [7] was > 100 µM in each case. In addition, the TGI in assay [8], in assay [9], in [10] and in [11] was > 100 µM each time.

As to `CCOC(=O)c1c(-c2ccc(O)c(OC)c2)c(C#N)c(=S)n(C2OC(COC(C)=O)C(OC(C)=O)C(OC(C)=O)C2OC(C)=O)c1-c1ccccc1` (stereo unspecified), the GI50 in assay [1] was 45.4 µM and > 100 µM; in assay [11] it was 20.9 µM and 62.3 µM. Further, the TGI in [1], in assay [2], in assay [3], in [12], in assay [5] and in assay [7] was > 100 µM each time. Also, the TGI in [8] is > 100 µM; in assay [9], > 100 µM; in [10], > 100 µM; in assay [11], 50.3 µM and > 100 µM.

For `N#Cc1c(Cl)/c(=C/O)c(=O)n2c1nc1ccccc12`, the TGI in assay [1] was > 100 µM; in [2], > 100 µM; in assay [3] it was 91.7 µM; in [12], 94.7 µM; in [5], > 100 µM; in [7], > 100 µM. Also, the TGI in [8], in assay [9], in assay [10] and in [11] was > 100 µM throughout.

Take `O=c1cc(CBr)c2ccc(O)cc2o1`: the TGI in assay [1], in assay [2], in assay [3], in assay [12], in [5] and in [6] was > 100 µM in each case. Further, the TGI in [7], in assay [8], in assay [9], in [10] and in assay [11] was > 100 µM in each case.

Regarding `O=C(O)c1ccccc1C(=O)Nn1cnnc1`, the TGI in assay [1], in assay [2], in assay [3], in assay [5], in [6] and in assay [7] was > 100 µM throughout. Moreover, the TGI in assay [8], in [9] and in assay [10] was > 100 µM each time.

As to `COC(=O)C1=C(\c2ccccc2)c2ccccc2C(=O)N(C2CCCCC2)/C=C\1`, the TGI was 63.1 µM in [2]; > 100 µM in assay [3]; > 100 µM in [5]; 39.2 µM in assay [6]; > 100 µM in [7]; > 100 µM in assay [8]. Further, the TGI in assay [10] was > 100 µM; in assay [11], 68.6 µM.

For the molecule `COc1ccc2cc(/C=N\NC(=O)Nc3cccc4ccccc34)ccc2c1`, the TGI in [2] was 29.9 µM; in assay [3], > 100 µM; in assay [12], 94.6 µM; in assay [5], > 100 µM; in [6] it was > 100 µM; in [7], 76.6 µM. Also, the TGI in [8] was 25.5 µM; in [10], > 100 µM; in assay [11] it was > 100 µM.

Turning to `Cc1ccc(NC(=O)CC(=O)n2nc(-c3ccccc3)c(N=Nc3ccccc3Cl)c2-c2ccccc2)cc1`, the TGI in [1], in assay [2], in assay [3], in [5], in assay [6] and in [7] was > 100 µM in each case. The TGI in assay [8], in assay [9], in assay [10] and in [11] was > 100 µM throughout. The GI50 in assay [6], in [9] and in assay [10] was > 100 µM each time.

Consider `CCCCCCCCCCCCC(O)C1CCC(C(O)CCCCCCC(O)CCCCCCCC2=CC(C)OC2=O)O1` (stereo unspecified), for which the TGI in [2] was > 100 µM; in [3] it was > 100 µM; in assay [4] it was > 100 µM; in [5], 45.7 µM; in assay [6] it was 61.1 µM; in assay [7], > 100 µM. The TGI in assay [8] was > 100 µM; in [9], 22.3 µM; in [10] it was > 100 µM; in [11], 56.7 µM. Besides, the GI50 is > 100 µM in [3]; 14.8 µM in assay [4]; 18.9 µM in assay [7]; 2.05 µM in assay [9]; 41.2 µM in assay [10].

For the molecule `CC1=NN(C(=O)c2ccccc2O)C(=O)/C1=C/c1ccccc1O`, the TGI in [1] is 7.2 µM; in assay [2], > 100 µM; in assay [3], > 93.8 µM; in [4] it was 15.6 µM; in assay [5], 48.4 µM; in assay [6], > 91.4 µM. Also, the TGI in [7] is 33.1 µM; in assay [8] it was 44.4 µM; in assay [9], > 100 µM; in assay [10], > 75.4 µM; in [11], 74.4 µM.

As for `CCCN1CN(C(C(=O)N[C@@H]2C(=O)N3C(C(=O)O)=C(C)CSC23)c2ccc(O)cc2)CSC1=S` (stereo partly specified), the TGI in assay [1], in assay [2], in assay [3], in assay [5], in assay [6] and in assay [7] was > 100 µM each time. In addition, the TGI in [8], in [9], in [10] and in [11] was > 100 µM in each case.

For the origin of these results see PubChem BioAssay (NCI).
